The values that follow are results of earlier work, collected in patent publication US10294264B2, “Oxysterol-therapeutic agent derivative for bone healing” (Warsaw Orthopedic, Inc., priority 2017, dated 2019).

One data set relates to osteoprogenitor cells. The following applies: in vitro.
Another data set relates to Mesenchymal stem cells. The following applies: mesenchymal stem cells treated with compound.
Data set [1] has as its system spine fusion model. The following applies: rat spine fusion model.
Data set [2] concerns spine fusion model. As to conditions: rabbit spine fusion model.

Structures are written as SMILES. Like-named read-outs stand apart in the source and are kept apart here.

As for `CCCCCC[C@](C)(O)[C@H]1CC[C@H]2[C@@H]3C[C@H](O)[C@H]4C[C@@H](O)CC[C@]4(C)[C@H]3CC[C@@]21C` [OXY133, (3S,5S,6S,8R,9S,10R,13S,14S,17S)-17-((S)-2-hydroxyoctan-2-yl)-10,13-dimethylhexadecahydro-1H-cyclopenta[a]phenanthrene-3,6-diol], the “osteogenic differentiation of osteoprogenitor cells” value in the data set with osteoprogenitor cells is listed as “induces osteogenic differentiation”. Moreover, the osteoblast differentiation entry with Mesenchymal stem cells is listed as “increased osteoblast differentiation”. The “bone formation in vivo” value in the data set on spine fusion model [1] and in the data set with spine fusion model [2] was “robust bone formation” throughout.
